Measurements published in ChEMBL document CHEMBL3507680, “University of Dundee, Gates Library screen for HepG2 cell viability”.

Test: Human HepG2 cell viability assay in 384 well format
Format: toxicity, cell-based
Set-up: dose 125 nL, time 70.5 hour; concentration not given beside the values
Settings: HepG2 cells, read-out: Inhibition

Row | SMILES | cytotoxicity at 70.5 h [%]
1 | O=C(Nc1c(F)cccc1F)N1CC(c2nc(C3CC3)no2)C1 | -6.67
2 | CCS(=O)(=O)N1CC(c2nc(-c3cccs3)no2)C1 | -2.02
3 | COc1ncccc1C(=O)N1CC(c2nc(-c3cccs3)no2)C1 | -5.8
4 | CN(C)S(=O)(=O)N1CC(c2nc(-c3ccsc3)no2)C1 | -6.06
5 | O=C(c1ccccc1F)N1CC(c2nc(-c3ccc[nH]c3=O)no2)C1 | -2.53
6 | N#Cc1cccc(C(=O)N2CC(c3nc(-c4ccc[nH]c4=O)no3)C2)c1 | -1.92
7 | COc1ncccc1C(=O)N1CC(c2nc(-c3ccco3)no2)C1 | 15.9
8 | O=C1CCCN1C(CNS(=O)(=O)C1CC1)Cc1cccc(F)c1 (configuration not stated) | -15.5
9 | Cc1cc(C(=O)NCC(Cc2cccc(F)c2)N2CCCCC2=O)no1 (configuration not stated) | -2.65
10 | CN(C)S(=O)(=O)NCC(Cc1cccc(F)c1)N1CCNC1=O (configuration not stated) | -2.09
11 | CC(C)S(=O)(=O)NCC(Cc1cccc(F)c1)N1CCNC1=O (configuration not stated) | -15.5
12 | CCOCC(=O)NCC(Cc1cccc(F)c1)n1cccc1 (configuration not stated) | -1.33
13 | O=C(Nc1ccccc1F)C1CN(C(=O)c2ccc3c(c2)OCO3)C1 | -11.5
14 | CC(=O)N1CC(C(=O)Nc2cccc(OC(F)F)c2)C1 | -3.71
15 | O=C(Nc1cccc(OC(F)F)c1)C1CN(S(=O)(=O)C2CC2)C1 | 0.345
16 | O=C(CC1CCCCC1)N1CCOCC1CO (configuration not stated) | -14.9
17 | c1ccc2c(c1)CCN2c1nc(N2CCOCC2)c2nn[nH]c2n1 | 32.9
18 | O=S(=O)(NCC1CCN(c2cnccn2)CC1)C1CC1 | 30.4
19 | CC(=O)c1ccc(S(=O)(=O)NCC2CCN(c3cnccn3)CC2)cc1 | -4.91

Row | SMILES | cytotoxicity at 70.5 h [%]
20 | CCCc1nnsc1C(=O)NCC1CCN(C(=O)c2ccncc2)CC1 | 25.7
21 | COc1cccc(C(=O)NCC2CCN(C(=O)c3ccoc3)CC2)c1 | -3.78
22 | COc1ccc(CCC(=O)NCCN2CCC(c3cccs3)CC2)cc1 | -1.5
23 | CSCC(C)(O)CNS(=O)(=O)Cc1ccc(F)cc1 (configuration not stated) | -11.7
24 | CCOc1ccccc1NC(=O)NCC(C)(O)CCSC (configuration not stated) | -3.88
25 | COc1cccc(NC(=O)NCC(C)(O)CCSC)c1OC (configuration not stated) | -8.28
26 | CC(C)(C)C(O)CCNC(=O)c1ccc(F)cc1Cl (configuration not stated) | -16.1
27 | O=S(=O)(NCCC(O)c1cccs1)c1c(F)cccc1F (configuration not stated) | -14.6
28 | COc1ccc(Cl)cc1NC(=O)CN1CCc2nc(NC(C)=O)sc2C1 | 18.9
29 | O=C(Nc1nc2c(s1)CN(S(=O)(=O)C1CC1)CC2)C1CC1 | 27
30 | COC(=O)Nc1nc2c(s1)CN(C(=O)NCc1cccs1)CC2 | -7.97
31 | CC(C)NC(=O)Nc1nc2c(s1)CN(C(=O)NCc1cccs1)CC2 | -0.676
32 | O=C(Nc1nc2c(s1)CN(S(=O)(=O)C1CC1)CC2)c1ccsc1 | -12.1
33 | COc1ccc(F)cc1S(=O)(=O)N1CCN(CCn2ccnc2)CC1 | -12.2
34 | O=S(=O)(NCC(O)c1ccc(C(F)(F)F)cc1)C1CC1 (configuration not stated) | 12.5
35 | O=S(=O)(NCC1(O)CCOc2ccccc21)c1ccc(Cl)s1 (configuration not stated) | -6.65
36 | O=C1CC(NS(=O)(=O)c2ccc(Cl)cc2)CN1 (configuration not stated) | 0.308
37 | O=C1CC(NS(=O)(=O)c2cccc(F)c2)CN1 (configuration not stated) | 5.76
38 | O=C1CC(NS(=O)(=O)c2ccc(F)c(Cl)c2)CN1 (configuration not stated) | 0.519

Row | SMILES | cytotoxicity at 70.5 h [%]
39 | COC(=O)c1ccc(S(=O)(=O)NC2CNC(=O)C2)cc1 (configuration not stated) | 0.76
40 | O=C(NC1CC(=O)N(C2CC2)C1)c1ccc(Cl)s1 (configuration not stated) | -8.35
41 | CCS(=O)(=O)CCNC(=O)c1cc2n(n1)CCCO2 | -5.74
42 | O=C(c1cnn2c1OCCC2)N1CCC(Cc2ccccc2)CC1 | 29.6
43 | CC(=O)c1ccc(N2CCN(C(=O)c3cnn4c3OCCC4)CC2)cc1 | 1.33
44 | O=C(c1cnn2c1OCCC2)N1CCN(C(=O)C2CCCO2)CC1 (configuration not stated) | -5.75
45 | CC(C)(C)OC(=O)N1CCN(C(=O)c2cnn3c2OCCC3)CC1 | -0.601
46 | CCc1ccc(S(=O)(=O)N2CC3(COC(C)(C)OC3)C2)s1 | 14.1
47 | O=C(CCCc1ccc(Cl)cc1)N1CCN(C(=O)c2ccc[nH]2)CC1 | 1.45
48 | COc1ccnc(N2CCC3(CCCN(CC4CC4)C3=O)C2)n1 (configuration not stated) | -6.47
49 | CCN1CCN(C[C@@H]2CN(c3ncccc3Cl)C[C@@H]2CO)CC1 | -3.91
50 | COc1cc(Oc2ccc(C(N)=O)cn2)ccc1CN1CCCC1 | -6.89
51 | Cc1ccc(OCc2occc2C(=O)N2CC[C@H](CO)[C@@H](O)C2)cc1 | -8.34
52 | CCS(=O)(=O)N(C)CCCNCc1c(C)nn(C)c1N(C)C | -2.24
53 | Cc1nc(CC(=O)N2CCc3nnc(N(C)C)cc3C2)cs1 | 0.153
54 | Cc1nn(C)c(N(C)C)c1CNCCCN(C(C)C)S(C)(=O)=O | 8.55
55 | CCS(=O)(=O)NCCCNCc1c(C)nn(C)c1N(C)C | 21.5
56 | Cc1cc(C(=O)O)cc(S(=O)(=O)Nc2ccc3c(c2)OCCCO3)c1C | -5.74
57 | CC(C)CN(Cc1nc2c(cnn2C)c(=O)[nH]1)CC(C)C | -5.64
